Test results from ChEMBL document CHEMBL1641529, “Novel 9a,11-bridged azalides: One-pot synthesis of N'-substituted 2-imino-1,3-oxazolidines condensed to an azalide aglycone” (2011).
Converted amounts (≈) assume the structure as drawn.

Experiments:
Staphylococcus aureus = test: Antimicrobial activity against Staphylococcus aureus after 24 hrs by microdilution method; format: functional
Streptococcus pneumoniae = test: Antimicrobial activity against Streptococcus pneumoniae after 24 hrs by microdilution method; format: functional
Streptococcus pyogenes = test: Antimicrobial activity against Streptococcus pyogenes after 24 hrs by microdilution method; format: functional
Moraxella catarrhalis = test: Antimicrobial activity against Moraxella catarrhalis after 24 hrs by microdilution method; format: functional
Haemophilus influenzae = test: Antimicrobial activity against Haemophilus influenzae after 24 hrs by microdilution method; format: functional
Saccharomyces cerevisiae = test: Toxicity in Saccharomyces cerevisiae after 24 hrs by microdilution method; format: functional, organism-based

| Structure (SMILES) | MIC (Staphylococcus aureus) | MIC (Streptococcus pneumoniae) | MIC (Streptococcus pyogenes) | MIC (Moraxella catarrhalis) | MIC (Haemophilus influenzae) | Activity (Saccharomyces cerevisiae) |
| --- | --- | --- | --- | --- | --- | --- |
| CC[C@H]1OC(=O)[C@H](C)[C@@H](O)[C@H](C)[C@@H](O[C@@H]2O[C@H](C)C[C@H](N(C)C)[C@H]2O)[C@](C)(O)C[C@@H](C)CN2/C(=N\Cc3ccccc3)O[C@H]([C@H]2C)[C@]1(C)O | 64 µg/mL (≈ 92.5 µM) | 8 µg/mL (≈ 11.6 µM) | 8 µg/mL (≈ 11.6 µM) | 64 µg/mL (≈ 92.5 µM) | > 64 µg/mL | Not toxic |
| CC[C@H]1OC(=O)[C@H](C)[C@@H](O)[C@H](C)[C@@H](O[C@@H]2O[C@H](C)C[C@H](N(C)C)[C@H]2O)[C@](C)(OC)C[C@@H](C)CN2/C(=N\Cc3ccccc3)O[C@H]([C@H]2C)[C@]1(C)O | > 64 µg/mL | 32 µg/mL (≈ 45.3 µM) | 16 µg/mL (≈ 22.7 µM) | > 64 µg/mL | > 64 µg/mL | Not toxic |
| CC[C@H]1OC(=O)[C@H](C)[C@@H](O)[C@H](C)[C@@H](O[C@@H]2O[C@H](C)C[C@H](N(C)C)[C@H]2O)[C@](C)(O)C[C@@H](C)CN2/C(=N\c3ccc(-c4ccccc4)cc3OC)O[C@H]([C@H]2C)[C@]1(C)O | > 64 µg/mL | > 64 µg/mL | > 64 µg/mL | 32 µg/mL (≈ 40.8 µM) | > 64 µg/mL | Not toxic |
| CC[C@H]1OC(=O)[C@H](C)[C@@H](O[C@@H]2C[C@@](C)(OC)[C@@H](O)[C@H](C)O2)[C@H](C)[C@@H](O[C@@H]2O[C@H](C)C[C@H](N(C)C)[C@H]2O)[C@](C)(OC)C[C@@H](C)CN2/C(=N\c3cccc4ccccc34)O[C@H]([C@H]2C)[C@]1(C)O | 16 µg/mL (≈ 17.8 µM) | 0.5 µg/mL (≈ 0.555 µM) | 1 µg/mL (≈ 1.11 µM) | 8 µg/mL (≈ 8.89 µM) | 32 µg/mL (≈ 35.5 µM) | Not toxic |
| CC[C@H]1OC(=O)[C@H](C)[C@@H](O[C@@H]2C[C@@](C)(OC)[C@@H](O)[C@H](C)O2)[C@H](C)[C@@H](O[C@@H]2O[C@H](C)C[C@H](N(C)C)[C@H]2O)[C@](C)(OC)C[C@@H](C)CN2/C(=N\Cc3ccccc3)O[C@H]([C@H]2C)[C@]1(C)O | 2 µg/mL (≈ 2.31 µM) | < 0.125 µg/mL | < 0.125 µg/mL | 2 µg/mL (≈ 2.31 µM) | 16 µg/mL (≈ 18.5 µM) | Not toxic |
| CC[C@H]1OC(=O)[C@H](C)[C@@H](O[C@@H]2C[C@@](C)(OC)[C@@H](O)[C@H](C)O2)[C@H](C)[C@@H](O[C@@H]2O[C@H](C)C[C@H](N(C)C)[C@H]2O)[C@](C)(O)C[C@@H](C)CN2/C(=N\C(C)C)O[C@H]([C@H]2C)[C@]1(C)O | 16 µg/mL (≈ 19.9 µM) | 2 µg/mL (≈ 2.49 µM) | 2 µg/mL (≈ 2.49 µM) | 16 µg/mL (≈ 19.9 µM) | > 64 µg/mL | Not toxic |
| CC[C@H]1OC(=O)[C@H](C)[C@@H](O[C@@H]2C[C@@](C)(OC)[C@@H](O)[C@H](C)O2)[C@H](C)[C@@H](O[C@@H]2O[C@H](C)C[C@H](N(C)C)[C@H]2O)[C@](C)(OC)C[C@@H](C)CN2/C(=N\C(C)C)O[C@H]([C@H]2C)[C@]1(C)O | 16 µg/mL (≈ 19.6 µM) | 0.5 µg/mL (≈ 0.613 µM) | 1 µg/mL (≈ 1.23 µM) | 2 µg/mL (≈ 2.45 µM) | 64 µg/mL (≈ 78.4 µM) | Not toxic |
| CC[C@H]1OC(=O)[C@H](C)[C@@H](O)[C@H](C)[C@@H](O[C@@H]2O[C@H](C)C[C@H](N(C)C)[C@H]2O)[C@](C)(O)C[C@@H](C)CN2/C(=N\C(C)C)O[C@H]([C@H]2C)[C@]1(C)O | > 64 µg/mL | 4 µg/mL (≈ 6.21 µM) | 8 µg/mL (≈ 12.4 µM) | > 64 µg/mL | > 64 µg/mL | Not toxic |
| CC[C@H]1OC(=O)[C@H](C)C(=O)[C@H](C)[C@@H](O[C@@H]2O[C@H](C)C[C@H](N(C)C)[C@H]2O)[C@](C)(OC)C[C@@H](C)CN2/C(=N\Cc3ccccc3)O[C@H]([C@H]2C)[C@]1(C)O | > 64 µg/mL | 2 µg/mL (≈ 2.84 µM) | 8 µg/mL (≈ 11.4 µM) | 8 µg/mL (≈ 11.4 µM) | > 64 µg/mL | Not toxic |
| CC[C@H]1OC(=O)[C@H](C)[C@@H](O[C@@H]2C[C@@](C)(OC)[C@@H](O)[C@H](C)O2)[C@H](C)[C@@H](O[C@@H]2O[C@H](C)C[C@H](N(C)C)[C@H]2O)[C@](C)(O)C[C@@H](C)CN2/C(=N\c3cccc4ccccc34)O[C@H]([C@H]2C)[C@]1(C)O | 8 µg/mL (≈ 9.03 µM) | < 0.125 µg/mL | 0.25 µg/mL (≈ 0.282 µM) | 4 µg/mL (≈ 4.51 µM) | 8 µg/mL (≈ 9.03 µM) | Not toxic |
| CC[C@H]1OC(=O)[C@H](C)[C@@H](O)[C@H](C)[C@@H](O[C@@H]2O[C@H](C)C[C@H](N(C)C)[C@H]2O)[C@](C)(OC)C[C@@H](C)CN2/C(=N\c3cccc4ccccc34)O[C@H]([C@H]2C)[C@]1(C)O | > 64 µg/mL | 64 µg/mL (≈ 86.3 µM) | > 64 µg/mL | 16 µg/mL (≈ 21.6 µM) | > 64 µg/mL | Not toxic |

Now from value to compound, other results behind:

| MIC (Staphylococcus aureus) | MIC (Streptococcus pneumoniae) | MIC (Streptococcus pyogenes) | MIC (Moraxella catarrhalis) | MIC (Haemophilus influenzae) | Structure (SMILES) | Activity (Saccharomyces cerevisiae) |
| --- | --- | --- | --- | --- | --- | --- |
| > 64 µg/mL | 16 µg/mL (≈ 24.9 µM) | 32 µg/mL (≈ 49.9 µM) | 32 µg/mL (≈ 49.9 µM) | > 64 µg/mL | CC[C@H]1OC(=O)[C@H](C)[C@@]2(O)O[C@@](C)(C[C@@H](C)CN3/C(=N\C(C)C)O[C@H]([C@H]3C)[C@]1(C)O)[C@H](O[C@@H]1O[C@H](C)C[C@H](N(C)C)[C@H]1O)[C@H]2C | Not toxic |
| 2 µg/mL (≈ 2.35 µM) | < 0.125 µg/mL | < 0.125 µg/mL | 2 µg/mL (≈ 2.35 µM) | 16 µg/mL (≈ 18.8 µM) | CC[C@H]1OC(=O)[C@H](C)[C@@H](O[C@@H]2C[C@@](C)(OC)[C@@H](O)[C@H](C)O2)[C@H](C)[C@@H](O[C@@H]2O[C@H](C)C[C@H](N(C)C)[C@H]2O)[C@](C)(O)C[C@@H](C)CN2/C(=N\Cc3ccccc3)O[C@H]([C@H]2C)[C@]1(C)O | Not toxic |
| > 64 µg/mL | 32 µg/mL (≈ 46.4 µM) | 32 µg/mL (≈ 46.4 µM) | 32 µg/mL (≈ 46.4 µM) | > 64 µg/mL | CC[C@H]1OC(=O)[C@H](C)[C@@]2(O)O[C@@](C)(C[C@@H](C)CN3/C(=N\Cc4ccccc4)O[C@H]([C@H]3C)[C@]1(C)O)[C@H](O[C@@H]1O[C@H](C)C[C@H](N(C)C)[C@H]1O)[C@H]2C | Not toxic |
| 2 µg/mL (≈ 2.12 µM) | < 0.125 µg/mL | < 0.125 µg/mL | 8 µg/mL (≈ 8.49 µM) | 8 µg/mL (≈ 8.49 µM) | CC[C@H]1OC(=O)[C@H](C)[C@@H](O[C@@H]2C[C@@](C)(OC)[C@@H](O)[C@H](C)O2)[C@H](C)[C@@H](O[C@@H]2O[C@H](C)C[C@H](N(C)C)[C@H]2O)[C@](C)(O)C[C@@H](C)CN2/C(=N\c3ccc(-c4ccccc4)cc3OC)O[C@H]([C@H]2C)[C@]1(C)O | Not toxic |
| > 64 µg/mL | > 64 µg/mL | > 64 µg/mL | 64 µg/mL (≈ 87.9 µM) | > 64 µg/mL | CC[C@H]1OC(=O)[C@H](C)[C@@H](O)[C@H](C)[C@@H](O[C@@H]2O[C@H](C)C[C@H](N(C)C)[C@H]2O)[C@](C)(O)C[C@@H](C)CN2/C(=N\c3cccc4ccccc34)O[C@H]([C@H]2C)[C@]1(C)O | Not toxic |
| > 64 µg/mL | 16 µg/mL (≈ 24.4 µM) | > 64 µg/mL | 16 µg/mL (≈ 24.4 µM) | > 64 µg/mL | CC[C@H]1OC(=O)[C@H](C)C(=O)[C@H](C)[C@@H](O[C@@H]2O[C@H](C)C[C@H](N(C)C)[C@H]2O)[C@](C)(OC)C[C@@H](C)CN2/C(=N\C(C)C)O[C@H]([C@H]2C)[C@]1(C)O | Not toxic |
